Experimental data from patent US20260315475A1 (priority 2023, published 2026).
Counter-ions that a name gives are not always drawn. One block for each compound: values may come before it.

Columns and labels:
[1] = Phase I single-dose open-label pharmacokinetic study in participants with normal hepatic function and varying degrees of hepatic impairment; format: in vivo, human; conditions: for MRAUC (metabolite/parent ratio based on AUC): geometric mean (CV %); for tlast: plasma, single oral 200 mg belumosudil, fed, median
Description: The primary objective was to assess the pharmacokinetic (PK) of belumosudil following a single oral dose of belumosudil in participants with mild, moderate, or severe hepatic impairment compared to healthy participants with normal hepatic function.
The secondary objectives were: to evaluate the safety and tolerability of a single oral dose of belumosudil in participants with mild, moderate, or severe hepatic impairment, and in healthy participants with normal hepatic function; to assess the PK of the belumosudil metabolites following a single oral dose of belumosudil in participants with mild, moderate, or severe hepatic impairment compared to healthy participants with normal hepatic function.
Approximately 38 participants were to be enrolled into the following groups based on their hepatic function, as determined according to the Child-Pugh system. • Group 1 (n=approximately 16): matched healthy participants with normal hepatic function • Group 2 (n=8): participants with mild hepatic impairment (Child-Pugh Class A [score of 5 or 6]) • Group 3 (n=8): participants with moderate hepatic impairment (Child-Pugh Class B [score of 7 to 9]) • Group 4 (n=6): participants with severe hepatic impairment (Child-Pugh Class C [score of 10 to 14]).
Healthy participants with normal hepatic function (Group 1) were demographically matched by age (±10 years), sex, and body mass index (BMI; +20%) to participants with hepatic impairment (Groups 2, 3, and 4). Participants with normal hepatic function could be matched to multiple participants across the 3 hepatic impairment groups (mild, moderate, and severe), but could not be matched to more than 1 participant within the same impairment group.
Pharmacokinetic blood samples were obtained from predose until 48 hours postdose (Day 3).
Summary tables, mean (+standard deviation [SD]) figures, overlaying individual figures, and individual figures by hepatic function and time postdose were provided for plasma PK concentrations. Summary tables by hepatic function were provided for all PK parameters, with the exception of terminal phase regression-related diagnostic parameters (λz, λz upper, λ z lower, λz number of points, R2-adj, and % AUCextrap), which were listed only.
All other PK parameters were regarded as secondary and were not participant to inferential statistical analysis.

[2] = cited from earlier work
[3] = cited from earlier work; remark: listed apart in the source
CYP3A4 = conditions: in vitro, high concentrations; cited from earlier work
[4] = healthy volunteers, per label; cited from earlier work

- MRAUC (metabolite/parent ratio based on AUC) ([1]; mild hepatic impairment): 0.135 (73.8%)
- MRAUC (metabolite/parent ratio based on AUC) ([1]; mild hepatic impairment, listed as KD025 m2): 0.135 (73.8) [8]
- MRAUC (metabolite/parent ratio based on AUC) ([1]; moderate hepatic impairment): 0.318 (70.5%)
- MRAUC (metabolite/parent ratio based on AUC) ([1]; moderate hepatic impairment, listed as KD025 m2): 0.318 (70.5) [7]
- MRAUC (metabolite/parent ratio based on AUC) ([1]; normal hepatic function): 0.103 (68.8%)
- MRAUC (metabolite/parent ratio based on AUC) ([1]; normal hepatic function, listed as KD025 m2): 0.103 (68.8) [14]
- tlast ([1]; mild hepatic impairment): 23.9 h
- tlast ([1]; moderate hepatic impairment): 48.0 h
- tlast ([1]; normal hepatic function): 14.0 h
- tlast ([1]; severe hepatic impairment): 48.0 h
- MRAUC (metabolite/parent ratio based on AUC) ([1]; severe hepatic impairment): 0.680 (63.5%)
- MRAUC (metabolite/parent ratio based on AUC) ([1]; severe hepatic impairment, listed as KD025 m2): 0.680 (63.5) [4]
SMILES: O=C(O)COc1cccc(-c2nc(Nc3ccc4[nH]ncc4c3)c3ccccc3n2)c1 [KD025m2]

SMILES: CC(C)NC(=O)COc1cccc(-c2nc(Nc3ccc4[nH]ncc4c3)c3ccccc3n2)c1 [belumosudil mesylate, 2-{3-[4-(1H-indazol-5-ylamino)-2-quinazolinyl]phenoxy}-N-(propan-2-yl) acetamide methanesulfonate (1:1)]
- solubility in DMF ([2]; DMF): slightly soluble
- solubility in DMSO ([2]; DMSO): soluble
- solubility in methanol ([2]; methanol): slightly soluble
- solubility in water ([2]; water): practically insoluble

SMILES: C=CC(=O)N1CCC[C@@H](n2nc(-c3ccc(Oc4ccccc4)cc3)c3c(N)ncnc32)C1 [ibrutinib]
- overall response rate (ORR) ([3]; cGVHD patients with >25% body surface area erythematous rash or NIH mouth score >4): 67%
- discontinuation rate because of TEAEs ([3]; cGVHD patients): 43%

SMILES: CO[C@H]1/C=C/O[C@@]2(C)Oc3c(C)c(O)c4c(O)c(c5c(nc6cc(C)ccn65)c4c3C2=O)NC(=O)/C(C)=C\C=C\[C@H](C)[C@H](O)[C@@H](C)[C@@H](O)[C@@H](C)[C@H](OC(C)=O)[C@@H]1C [rifaximin]
- CYP3A4 induction (CYP3A4): CYP3A4 inducer at high concentrations
- drug-drug interaction (DDI) effects [4]: not shown to have drug-drug interaction (DDI) effects
